Measured values reported in ChEMBL document CHEMBL1201862, “PubChem BioAssay data set” (2004).
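Results reflect a 48-hour exposure of cells in 96-well plates to compound at five concentrations. The concentration for 50% growth inhibition is given as GI50.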 The source made the active and inactive calls. Rule as the data show it: active = GI50 up to about 1.1 µM and inactive = higher.

Experiments:
Test in all cases: NCI tumour cell line growth inhibition, 48 h
[1] = tested on: Hs-578T
[2] = tested on: T47D
[3] = tested on: MDA-MB-231

Structure (SMILES) | GI50 [1] | GI50 [2] | GI50 [3]
COc1cccc(C2c3cc4c(cc3OC(C)(N3CCCC3)C2C)OCO4)c1O (stereo unspecified) | 2 µM (inactive) | 12.1 µM (inactive) | 3.01 µM (inactive)
CC1(C)C(=O)N(O)C(C)(C)N1N=O |  | > 10 µM (inactive) | > 10 µM (inactive)
COc1cc2c(/C=C3/C(=O)N(C)c4ccc(O)cc43)c(Cl)[nH]c2cc1C | 0.269 µM (active) | 3.41 µM (inactive) | 0.738 µM (active)
Cc1nc2ccc(F)cc2c(Cl)c1CCCl | 43.9 µM (inactive) | 38.6 µM (inactive) | 27 µM (inactive)
O=C(N/N=C\c1cccc2c([N+](=O)[O-])cccc12)Nc1ccccc1 | 13.2 µM (inactive) | 6.04 µM (inactive) | 17.8 µM (inactive)
Cc1cccc2c(=O)c3c(O)cc(O)cc3n(C)c12 | 6.37 µM (inactive) |  | > 100 µM (inactive)
CC(C)(CN1CCCCC1)C(=O)CC(SCCS(=O)(=O)O)c1ccc(Cl)c(Cl)c1 (stereo unspecified) | 2.8 µM (inactive) |  | 2.08 µM (inactive)
COC(=O)[C@@H]1[C@@H](c2cccc(Cl)c2)[C@H](C(=O)OC)C2(C[C@@]1(C)O)NCCS2 (stereo partly specified) | > 100 µM (inactive) | 29.6 µM (inactive) | 64.7 µM (inactive)
O=C1N/N=C\Nc2ccc(cc2)S(=O)(=O)c2ccc(cc2)/N=C\NNC1=O | > 100 µM (inactive) | > 100 µM (inactive) | > 100 µM (inactive)
COc1cccc(-c2cccc(SC)n2)n1 |  | 18.2 µM (inactive) | 40.4 µM (inactive)
OCCOCn1nncc1Cn1ncc2c(O)ncnc21 | > 100 µM (inactive) | > 100 µM (inactive) | > 100 µM (inactive)
CCN(CC)CCn1c2cc3c(cc2c(=O)c2cccnc21)OCO3 | > 10 µM (inactive) | > 10 µM (inactive) | 4.44 µM (inactive)
O=[N+]([O-])c1ccc(C2NC(=S)NC3c4cc([N+](=O)[O-])ccc4CCCC23)cc1 (stereo unspecified) | > 100 µM (inactive) | 35.6 µM (inactive) | > 100 µM (inactive)
C=C1[C@H](OCC(C)C)[C@@H](OCC(C)C)[C@@H](O)C(C)(C)/C=C/[C@H](C)C(=O)[C@@]2(O)C[C@H](C)[C@H](O)[C@@H]2[C@H]1OCC(C)C | 2.77 µM (inactive) | > 7.5 µM (inactive) | 3.25 µM (inactive)
COc1cnnc2c(C)c(-c3ccccc3)nn12 | > 66.1 µM (inactive) | 2.6 µM (inactive) | > 61.9 µM (inactive)
NC(=O)C(NC=O)c1ccccc1 (stereo unspecified) | > 100 µM (inactive) | > 100 µM (inactive) | > 100 µM (inactive)
CSC12c3cc(C)n(-c4ccccc4)c3CC(C)(C)CN1C(=O)C2Oc1ccccc1 (stereo unspecified) |  | > 100 µM (inactive) | > 100 µM (inactive)
Cc1c(C)c(C)c(-n2c(=O)n(C)c(=O)n2-n2c(=O)n(C)c(=O)n2-c2c(C)c(C)c(C)c(C)c2C)c(C)c1C | 0.0533 µM (active) | > 100 µM (inactive) | > 100 µM (inactive)
N=C1N(S(=O)(=O)c2ccccc2)[C@@H](Cc2ccccc2)[C@H](c2ccccc2)C1(c1ccccc1)c1ccccc1 | > 100 µM (inactive) |  | > 100 µM (inactive)
COc1cc(-c2cc(=O)c3c(OC)c(OC)c(OC)c(OC)c3o2)c(OC)c(OC)c1OC | 19.8 µM (inactive) | 16.2 µM (inactive) | 24.3 µM (inactive)
COC(=O)[C@@](C)(COC(=O)C(C)(C)C)NC(=O)OC(C)(C)C |  | > 100 µM (inactive) | > 100 µM (inactive)
Cc1ccc(C(C2C(=O)N(C)C(=O)N(C)C2=O)C(F)(F)C(=O)N(C)C)cc1 (stereo unspecified) |  | > 100 µM (inactive) | > 100 µM (inactive)
NC1CC(=O)c2c1sc(Cl)c2Cl (stereo unspecified) |  | > 100 µM (inactive) | > 100 µM (inactive)
C=CCOC1OC(CO[Si](C)(C)C(C)(C)C)C(OCc2ccccc2)C(OCc2ccccc2)C1OCc1ccccc1 (stereo unspecified) | 45.2 µM (inactive) | 35.6 µM (inactive) | 
O=S(=O)(O)c1ccc2cc(/N=N/c3c(O)ccc4ccccc34)ccc2c1 | 69.2 µM (inactive) | > 100 µM (inactive) | 
CC(C)(C)OC(=O)NC(CS(=O)(=O)O)C(=O)O (stereo unspecified) |  | > 100 µM (inactive) | > 100 µM (inactive)
